Laboratory results reported in patent US20250326718A1, “4-PHENYL-2-PYRROLIDINONES AND METHODS OF USING THEREOF” (North Carolina State University, priority 2022, published 2025).
In brackets after ≈: the same amount, converted by molar mass. Where two headings read alike, the source gives them in different places.

Legend:
Assay type in all cases: cell-based
[1] = test system: MRSA (ATCC 33591); experiment: Broth microdilution MIC, MRSA ATCC 33591; settings: Staphylococcus aureus; Tables 2-4; standardized conditions
Description: General information—Biological Assays. Methicillin-resistant and methicillin sensitive Staphylococcus aureus (MRSA and MSSA respectively) strains were obtained from the Laboratory of Professor Christian Melander (NCSU) (ATCC BAA 44 and 33591) and Dr. Jessica Gilbertie (ATCC 25923). Bacteria were kept in frozen stocks on glycerol at −80° C. until use. Bacteria was streaked onto tryptic-soy agar for colony isolation. Mueller-Hinton broth (MHB, 211443-BD), tryptic soy broth (TSB, Remel: R455052) and D-glucose (CAS: 492-62-6) were purchased from Fisher Scientific. Tryptic soy agar (TSA, cat. #22091) and Linezolid (cat. #P70014) were purchased from Sigma-Aldrich. Bacteria for biofilm inhibition were cultured overnight in TSB-G (tryptic soy broth with 0.5% glucose supplement) in 96 well plates. All assays were run in duplicate and repeated at least two separate times for MIC assays and at least three separate times for biofilm inhibition. All compounds were dissolved in molecular biology grade DMSO as 10 mM stock solutions. Optical densities were measured using a Thermo Scientific Genesys 20 spectrophotometer. Data for biofilm inhibition were collected using a BioTek ELx808 Microplate Reader. All graphs were generated and analyzed using GraphPad Prism 7.
Broth microdilution method for determination of minimum inhibitory concentrations. As prescribed by the Clinical and Laboratory Standards Institute (CLSI) M07-A8, Vol. 29 (2) MSSA (ATCC 25923) and MRSA (ATCC BAA 44 and 33591) was grown in MHB for 6-8 h; this culture was used to inoculate fresh MHB (5×10^5 CFU/mL). The resulting bacterial suspension was aliquoted (1 mL) into 1.5 mL Eppendorf tubes and compound was added from a 10 mM DMSO stock to achieve the desired initial starting concentration (typically 128 μg/mL). Linezolid (from a 10 mM DMSO stock) was used as a positive control. Inoculated media not treated with compound served as the negative control. The MIC was determined by microbroth dilution following the CLSI guidelines. The MIC was defined as the lowest concentration of antibiotic with no visible growth. The plate was sealed and incubated under stationary conditions at 37° C.
The antimicrobial activity of Compounds 1-15 was assessed initially against MSSA (ATCC 25923) and MRSA (ATCC 33591) strains. It was observed that almost all these compounds precipitated in aqueous solution at concentrations equal or higher than 8-16 μg/mL. In order to obtain preliminary results on the antimicrobial activity for these compounds, the standard conditions of the antimicrobial assays used where modified to favor the water solubility of these compounds.

[2] = test system: MSSA (ATCC 25923); experiment: Broth microdilution MIC, MSSA ATCC 25923; settings: Staphylococcus aureus; Tables 2-4; standardized conditions; read-out: MIC (S. aureus 25923)
[3] = test system: S. aureus 29213; experiment: Broth microdilution MIC, S. aureus 29213; settings: Staphylococcus aureus
[4] = Tables 3-4, standardized conditions, read-out: MIC (S. aureus 29213)
[5] = Table 2, standardized conditions, read-out: MIC (S. aureus 25913)

Row | MIC [1] [µg/mL] | MIC [2] [µg/mL] | MIC [3, 4] [µg/mL] | MIC [3, 5] [µg/mL] | SMILES
1 | > 128 | > 128 | > 128 |  | COc1ccc(N2C(=O)C(O)=C(c3ccc(C(F)(F)F)cc3)C2[C@H](O)c2ccccc2)cc1 (stereo partly drawn) [Compound 52, 3-Hydroxy-5-((R)-hydroxy(phenyl)methyl)-1-(4-methoxyphenyl)-4-(4-(trifluoromethyl)phenyl)-1,5-dihydro-2H-pyrrol-2-one]
2 | > 128 | > 128 | > 128 |  | CCCCCCN1C(=O)C(O)=C(c2ccc(C(F)(F)F)cc2)C1[C@H](O)c1ccccc1 (stereo partly drawn) [Compound 50, 1-Hexyl-3-hydroxy-5-((R)-hydroxy(phenyl)methyl)-4-(4-(trifluoromethyl)phenyl)-1,5-dihydro-2H-pyrrol-2-one]
3 | 4 (≈ 7.26 µM) | 2 to 4 (≈ 3.63 to 7.26 µM) | 2 (≈ 3.63 µM) |  | O=C1C(O)=C(c2ccc(C(F)(F)F)cc2)C([C@H](O)c2ccccc2)N1c1ccc(I)cc1 (stereo partly drawn) [Compound 55, 3-Hydroxy-5-((R)-hydroxy(phenyl)methyl)-1-(4-iodophenyl)-4-(4-(trifluoromethyl)phenyl)-1,5-dihydro-2H-pyrrol-2-one]
4 | > 256 | > 256 | > 256 |  | CCC1C(c2ccc(C(F)(F)F)cc2)=C(O)C(=O)N1CCSCCN1C(=O)C(O)=C(c2ccc(C(F)(F)F)cc2)C1CC (stereo not drawn) [Compound 37, 1,1′-(thiobis(ethane-2,1-diyl))bis(5-ethyl-3-hydroxy-4-(4-(trifluoromethyl)phenyl)-1,5-dihydro-2H-pyrrol-2-one)]
5 | > 128 | > 128 | > 128 |  | O=C1C(O)=C(c2ccc(C(F)(F)F)cc2)C(Cc2ccccc2)N1c1ccc(Br)cc1 (stereo not drawn) [Compound 46, 5-Benzyl-1-(4-bromophenyl)-3-hydroxy-4-(4-(trifluoromethyl)phenyl)-1,5-dihydro-2H-pyrrol-2-one]
6 | 32 (≈ 75.2 µM) | 64 (≈ 150 µM) | 32 (≈ 75.2 µM) |  | O=C1C(O)=C(c2ccc(C(F)(F)F)cc2)C([C@H](O)c2ccccc2)N1c1ccccc1 (stereo partly drawn) [Compound 51, 3-Hydroxy-5-((R)-hydroxy(phenyl)methyl)-1-phenyl-4-(4-(trifluoromethyl)phenyl)-1,5-dihydro-2H-pyrrol-2-one]
7 | 64 (≈ 160 µM) | 64 (≈ 160 µM) | 64 (≈ 160 µM) |  | CCC1C(c2ccc(C(F)(F)F)cc2)=C(O)C(=O)N1CCN(CCN)CCN (stereo not drawn) [Compound 38, 1-(2-(bis(2-aminoethyl)amino)ethyl)-5-ethyl-3-hydroxy-4-(4-(trifluoromethyl)phenyl)-1,5-dihydro-2H-pyrrol-2-one]

The next lines start with the compound.

Row | SMILES | MIC [1] [µg/mL] | MIC [2] [µg/mL] | MIC [3, 4] [µg/mL] | MIC [3, 5] [µg/mL]
8 | CCC1C(c2ccc(C(F)(F)F)cc2)=C(O)C(=O)N1C1CCC(N)CC1 (stereo not drawn) [Compound 19, 1-((1r,4r)-4-Aminocyclohexyl)-5-ethyl-3-hydroxy-4-(4-(trifluoromethyl)phenyl)-1,5-dihydro-2H-pyrrol-2-one] | 128 (≈ 347 µM) | 64 (≈ 174 µM) |  | 128 (≈ 347 µM)
9 | CCC1C(c2ccc(C(F)(F)F)cc2)=C(O)C(=O)N1CCCNCCCCNCCCN (stereo not drawn) [Compound 24, 1-(3-((4-((3-Aminopropyl)amino)butyl)amino)propyl)-5-ethyl-3-hydroxy-4-(4-(trifluoromethyl)phenyl)-1,5-dihydro-2H-pyrrol-2-one] | 16 (≈ 35 µM) | 8 (≈ 17.5 µM) |  | 16 (≈ 35 µM)
10 | CCC1C(c2ccc(C(F)(F)F)cc2)=C(O)C(=O)N1CCOCCN1C(=O)C(O)=C(c2ccc(C(F)(F)F)cc2)C1CC (stereo not drawn) [Compound 30, 1,1′-(Oxybis(ethane-2,1-diyl))bis(5-ethyl-3-hydroxy-4-(4-(trifluoromethyl)phenyl)-1,5-dihydro-2H-pyrrol-2-one)] | > 128 | > 128 |  | > 128
11 | CCC1C(c2ccc(C(F)(F)F)cc2)=C(O)C(=O)N1CCSCCN (stereo not drawn) [Compound 36] | > 128 | > 128 | > 128 | 
12 | CCC1C(c2ccc(C(F)(F)F)cc2)=C(O)C(=O)N1C1CCC(N2C(=O)C(O)=C(c3ccc(C(F)(F)F)cc3)C2CC)CC1 (stereo not drawn) [Compound 28, 1,1′-((1r,4r)-Cyclohexane-1,4-diyl)bis(5-ethyl-3-hydroxy-4-(4-(trifluoromethyl)phenyl)-1,5-dihydro-2H-pyrrol-2-one)] | 32 (≈ 51.4 µM) | 8 (≈ 12.8 µM) |  | 32 (≈ 51.4 µM)
13 | CCC1C(c2ccc(C(F)(F)F)cc2)=C(O)C(=O)N1CCCNCCCCN (stereo not drawn) [Compound 23, 1-(3-((4-Aminobutyl)amino)propyl)-5-ethyl-3-hydroxy-4-(4-(trifluoromethyl)phenyl)-1,5-dihydro-2H-pyrrol-2-one] | 32 to 64 (≈ 80.1 to 160 µM) | 16 (≈ 40.1 µM) |  | 64 (≈ 160 µM)
14 | CCC1C(c2ccc(C(F)(F)F)cc2)=C(O)C(=O)N1CCN1C(=O)C(O)=C(c2ccc(C(F)(F)F)cc2)C1CC (stereo not drawn) [Compound 25, 1,1′-(Ethane-1,2-diyl)bis(5-ethyl-3-hydroxy-4-(4-(trifluoromethyl)phenyl)-1,5-dihydro-2H-pyrrol-2-one)] | > 128 | > 128 |  | > 128
15 | CCC1C(c2ccc(C(F)(F)F)cc2)=C(O)C(=O)N1CCCCN1C(=O)C(O)=C(c2ccc(C(F)(F)F)cc2)C1CC (stereo not drawn) [Compound 26, 1,1′-(Butane-1,4-diyl)bis(5-ethyl-3-hydroxy-4-(4-(trifluoromethyl)phenyl)-1,5-dihydro-2H-pyrrol-2-one)] | > 128 | > 128 |  | > 128
16 | CCC1C(c2ccc(C(F)(F)F)cc2)=C(O)C(=O)N1CCOCCN (stereo not drawn) [Compound 21, 1-(2-(2-Aminoethoxy)ethyl)-5-ethyl-3-hydroxy-4-(4-(trifluoromethyl)phenyl)-1,5-dihydro-2H-pyrrol-2-one] | > 128 | > 128 |  | > 128
17 | CCC1C(c2ccc(C(F)(F)F)cc2)=C(O)C(=O)N1CCOCCOCCOCCN1C(=O)C(O)=C(c2ccc(C(F)(F)F)cc2)C1CC (stereo not drawn) [Compound 31, 1,1′-(((Oxybis(ethane-2,1-diyl))bis(oxy))bis(ethane-2,1-diyl))bis(5-ethyl-3-hydroxy-4-(4-(trifluoromethyl)phenyl)-1,5-dihydro-2H-pyrrol-2-one)] | > 128 | > 128 |  | > 128
18 | CCC1C(c2ccc(C(F)(F)F)cc2)=C(O)C(=O)N1CCOCCOCCOCCN (stereo not drawn) [Compound 22, 1-(2-(2-(2-(2-Aminoethoxy)ethoxy)ethoxy)ethyl)-5-ethyl-3-hydroxy-4-(4-(trifluoromethyl)phenyl)-1,5-dihydro-2H-pyrrol-2-one] | > 128 | > 128 |  | > 128
